Measurements taken from patent publication US12427157B2, “Methods for treatment of diseases involving acidic or hypoxic diseased tissues” (Cybrexa 1, Inc., priority 2018, dated 2025).
pIC50: −log10 of the molar value. Residues, ends and D or L forms follow the SMILES beside them. *: point of attachment. X26 = C[C@H](COC(=O)N1CCC[C@@H](c2ccc(-n3cc4cccc(C(N)=O)c4n3)cc2)C1)S*; X3 = CN(Cc1ccc(-c2[nH]c3cc(F)cc4c3c2CCNC4=O)cc1)C(=O)OCc1ccc(S*)cc1; X22 = C[C@]1(c2nc3c(C(N)=O)cccc3[nH]2)CCCN1C(=O)OCCS*
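Further: PARP reaction with activated DNA run 1 h at room temperature, product detected via streptavidin-HRP and luminescence endpoint reading on a plate reader.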

What follows are molecules tested against PARP (Homo sapiens, UniProt P09874) (assay: Enzymatic Assay 2: HT Universal Chemiluminescent PARP Assay of cleaved compounds). Conditions: read-out: IC50 Enzymatic Assay 2; Examples cleaved per Example A (crude cleavage solution); R^8H starting materials as such.
PARP, sequence (P09874 whole entry): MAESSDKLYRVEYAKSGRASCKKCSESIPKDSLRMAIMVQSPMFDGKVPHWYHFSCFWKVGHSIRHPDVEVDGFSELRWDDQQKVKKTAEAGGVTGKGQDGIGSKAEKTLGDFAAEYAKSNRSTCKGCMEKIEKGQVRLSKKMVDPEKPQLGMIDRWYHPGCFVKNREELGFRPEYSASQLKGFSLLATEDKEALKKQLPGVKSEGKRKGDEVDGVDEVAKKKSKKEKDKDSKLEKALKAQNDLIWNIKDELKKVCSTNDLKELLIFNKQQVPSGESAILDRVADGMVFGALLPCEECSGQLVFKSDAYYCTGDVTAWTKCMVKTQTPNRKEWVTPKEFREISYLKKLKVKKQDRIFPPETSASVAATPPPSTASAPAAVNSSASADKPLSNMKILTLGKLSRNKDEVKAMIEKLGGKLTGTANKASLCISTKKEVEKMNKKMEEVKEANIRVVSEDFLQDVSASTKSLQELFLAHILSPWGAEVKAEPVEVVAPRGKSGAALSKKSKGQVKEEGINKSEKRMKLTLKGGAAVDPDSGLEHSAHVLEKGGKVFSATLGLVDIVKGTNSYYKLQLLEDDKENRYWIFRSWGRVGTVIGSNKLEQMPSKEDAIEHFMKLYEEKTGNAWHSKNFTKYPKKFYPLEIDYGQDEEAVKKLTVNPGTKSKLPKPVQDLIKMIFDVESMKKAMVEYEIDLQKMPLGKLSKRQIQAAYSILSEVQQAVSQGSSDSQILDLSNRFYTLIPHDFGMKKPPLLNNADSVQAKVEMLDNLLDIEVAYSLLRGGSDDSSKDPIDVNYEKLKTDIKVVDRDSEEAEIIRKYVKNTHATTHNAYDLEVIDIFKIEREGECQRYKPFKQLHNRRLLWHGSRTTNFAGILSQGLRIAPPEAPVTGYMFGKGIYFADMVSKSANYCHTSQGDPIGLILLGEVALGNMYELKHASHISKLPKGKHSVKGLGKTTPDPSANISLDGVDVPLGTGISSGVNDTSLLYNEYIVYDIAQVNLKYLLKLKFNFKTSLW
Experimental: An equal volume of 1×PARP cocktail containing activated DNA was added to each well and the reaction was incubated for one hour at room temperature. The wells were washed twice with 1×PBS+0.1% Triton X-100 and twice with PBS. 50 ul/well of diluted streptavidin-HRP was added and the wells were incubated for one hour at room temperature. The wells were washed twice with 1×PBS+0.1% Triton X-100 and washed twice with PBS. The liquid was 5 removed, 100 ul/well 1:1 PeroxyGlow A/PeroxyGlow B was added and the chemiluminescent readings were measured on a BioTek Cytation 5 plate reader using the luminescence fiber endpoint.
Work on CC[C@H](C)[C@H](NC(=O)[C@@H]1CCCN1C(=O)[C@H](CC(N)=O)NC(=O)[C@H](CCC(N)=O)NC(=O)[C@H](CCC(=O)O)NC(=O)[C@H](C)N)C(=O)N[C@@H](Cc1ccc(O)cc1)C(=O)N[C@@H](Cc1c[nH]c2ccccc12)C(=O)N[C@@H](C)C(=O)N[C@@H](CCCNC(=N)N)C(=O)N[C@@H](Cc1ccc(O)cc1)C(=O)N[C@@H](C)C(=O)N[C@@H](CC(=O)O)C(=O)N[C@@H](Cc1c[nH]c2ccccc12)C(=O)N[C@@H](CC(C)C)C(=O)N[C@@H](Cc1ccccc1)C(=O)N[C@H](C(=O)N[C@H](C(=O)N1CCC[C@H]1C(=O)N[C@@H](CC(C)C)C(=O)N[C@@H](CC(C)C)C(=O)N[C@@H](CC(C)C)C(=O)N[C@@H](CC(C)C)C(=O)N[C@@H](CC(=O)O)C(=O)N[C@@H](CC(C)C)C(=O)N[C@@H](C)C(=O)N[C@@H](CC(C)C)C(=O)N[C@@H](CC(C)C)C(=O)N[C@H](C(=O)N[C@@H](CC(=O)O)C(=O)N[C@@H](C)C(=O)N[C@@H](CC(=O)O)C(=O)N[C@@H](CCC(=O)O)C(=O)N[C@@H](CSSCCOC(=O)N1CCC[C@]1(C)c1nc2c(C(N)=O)cccc2[nH]1)C(=O)NCC(=O)O)C(C)C)[C@@H](C)O)[C@@H](C)O [Example 53] (H-AEQNPIYWARYADWLFTTPLLLLDLALLVDADEC(X22)G-OH; N-terminus and C-terminus assumed) yielded a pIC50 of 9.00.
CC(C)C[C@H](NC(=O)[C@H](Cc1ccc(O)cc1)NC(=O)[C@H](C)NC(=O)[C@H](CCCNC(=N)N)NC(=O)[C@H](Cc1c[nH]c2ccccc12)NC(=O)[C@@H]1CCCN1C(=O)[C@H](CC(N)=O)NC(=O)[C@H](CCC(N)=O)NC(=O)[C@H](CC(=O)O)NC(=O)[C@H](CC(=O)O)NC(=O)[C@H](C)N)C(=O)N[C@@H](CC(=O)O)C(=O)N[C@@H](CC(C)C)C(=O)N[C@@H](CC(C)C)C(=O)N[C@@H](Cc1ccccc1)C(=O)N1CCC[C@H]1C(=O)N[C@H](C(=O)N[C@@H](CC(=O)O)C(=O)N[C@H](C(=O)N[C@@H](CC(C)C)C(=O)N[C@@H](CC(C)C)C(=O)N[C@@H](CC(C)C)C(=O)N[C@@H](CC(=O)O)C(=O)N[C@@H](CC(C)C)C(=O)N[C@@H](CC(C)C)C(=O)N[C@@H](Cc1c[nH]c2ccccc12)C(=O)N[C@@H](CC(=O)O)C(=O)N[C@@H](C)C(=O)N[C@@H](CC(=O)O)C(=O)N[C@@H](CCC(=O)O)C(=O)N[C@@H](CSS[C@@H](C)COC(=O)N(C)Cc1ccc(-c2[nH]c3cc(F)cc4c3c2CCNC4=O)cc1)C(=O)NCC(=O)O)[C@@H](C)O)[C@@H](C)O [Example 23] gave a pIC50 of 8.60.
Work on CC(C)C[C@H](NC(=O)[C@H](Cc1ccc(O)cc1)NC(=O)[C@H](C)NC(=O)[C@H](CCCNC(=N)N)NC(=O)[C@H](Cc1c[nH]c2ccccc12)NC(=O)[C@@H]1CCCN1C(=O)[C@H](CC(N)=O)NC(=O)[C@H](CCC(N)=O)NC(=O)[C@H](CC(=O)O)NC(=O)[C@H](CC(=O)O)NC(=O)[C@H](C)N)C(=O)N[C@@H](CC(=O)O)C(=O)N[C@@H](CC(C)C)C(=O)N[C@@H](CC(C)C)C(=O)N[C@@H](Cc1ccccc1)C(=O)N1CCC[C@H]1C(=O)N[C@H](C(=O)N[C@@H](CC(=O)O)C(=O)N[C@H](C(=O)N[C@@H](CC(C)C)C(=O)N[C@@H](CC(C)C)C(=O)N[C@@H](CC(C)C)C(=O)N[C@@H](CC(=O)O)C(=O)N[C@@H](CC(C)C)C(=O)N[C@@H](CC(C)C)C(=O)N[C@@H](Cc1c[nH]c2ccccc12)C(=O)N[C@@H](CC(=O)O)C(=O)N[C@@H](C)C(=O)N[C@@H](CC(=O)O)C(=O)N[C@@H](CCC(=O)O)C(=O)N[C@@H](CSS[C@H](C)COC(=O)N1CCC[C@]1(C)c1nc2c(C(N)=O)cccc2[nH]1)C(=O)NCC(=O)O)[C@@H](C)O)[C@@H](C)O [Example 51] yielded a pIC50 of 9.05.
In the case of CC[C@H](C)[C@H](NC(=O)[C@@H]1CCCN1C(=O)[C@H](CC(N)=O)NC(=O)[C@H](CCC(N)=O)NC(=O)[C@H](CCC(=O)O)NC(=O)[C@H](C)N)C(=O)N[C@@H](Cc1ccc(O)cc1)C(=O)N[C@@H](Cc1c[nH]c2ccccc12)C(=O)N[C@@H](C)C(=O)N[C@@H](CCCNC(=N)N)C(=O)N[C@@H](Cc1ccc(O)cc1)C(=O)N[C@@H](C)C(=O)N[C@@H](CC(=O)O)C(=O)N[C@@H](Cc1c[nH]c2ccccc12)C(=O)N[C@@H](CC(C)C)C(=O)N[C@@H](Cc1ccccc1)C(=O)N[C@H](C(=O)N[C@H](C(=O)N1CCC[C@H]1C(=O)N[C@@H](CC(C)C)C(=O)N[C@@H](CC(C)C)C(=O)N[C@@H](CC(C)C)C(=O)N[C@@H](CC(C)C)C(=O)N[C@@H](CC(=O)O)C(=O)N[C@@H](CC(C)C)C(=O)N[C@@H](C)C(=O)N[C@@H](CC(C)C)C(=O)N[C@@H](CC(C)C)C(=O)N[C@H](C(=O)N[C@@H](CC(=O)O)C(=O)N[C@@H](C)C(=O)N[C@@H](CC(=O)O)C(=O)N[C@@H](CCC(=O)O)C(=O)N[C@@H](CSS[C@H](C)COC(=O)N1CCC[C@@H](c2ccc(-n3cc4cccc(C(N)=O)c4n3)cc2)C1)C(=O)NCC(=O)O)C(C)C)[C@@H](C)O)[C@@H](C)O [Example 47] (H-AEQNPIYWARYADWLFTTPLLLLDLALLVDADEC(X26)G-OH; N-terminus and C-terminus assumed), the pIC50 was 8.62.
CC[C@H](C)[C@H](NC(=O)[C@@H]1CCCN1C(=O)[C@H](CC(N)=O)NC(=O)[C@H](CCC(N)=O)NC(=O)[C@H](CCC(=O)O)NC(=O)[C@H](C)N)C(=O)N[C@@H](Cc1ccc(O)cc1)C(=O)N[C@@H](Cc1c[nH]c2ccccc12)C(=O)N[C@@H](C)C(=O)N[C@@H](CCCNC(=N)N)C(=O)N[C@@H](Cc1ccc(O)cc1)C(=O)N[C@@H](C)C(=O)N[C@@H](CC(=O)O)C(=O)N[C@@H](Cc1c[nH]c2ccccc12)C(=O)N[C@@H](CC(C)C)C(=O)N[C@@H](Cc1ccccc1)C(=O)N[C@H](C(=O)N[C@H](C(=O)N1CCC[C@H]1C(=O)N[C@@H](CC(C)C)C(=O)N[C@@H](CC(C)C)C(=O)N[C@@H](CC(C)C)C(=O)N[C@@H](CC(C)C)C(=O)N[C@@H](CC(=O)O)C(=O)N[C@@H](CC(C)C)C(=O)N[C@@H](C)C(=O)N[C@@H](CC(C)C)C(=O)N[C@@H](CC(C)C)C(=O)N[C@H](C(=O)N[C@@H](CC(=O)O)C(=O)N[C@@H](C)C(=O)N[C@@H](CC(=O)O)C(=O)N[C@@H](CCC(=O)O)C(=O)N[C@@H](CSSc1ccc(COC(=O)N(C)Cc2ccc(-c3[nH]c4cc(F)cc5c4c3CCNC5=O)cc2)cc1)C(=O)NCC(=O)O)C(C)C)[C@@H](C)O)[C@@H](C)O [Example 28] (H-AEQNPIYWARYADWLFTTPLLLLDLALLVDADEC(X3)G-OH; N-terminus and C-terminus assumed) showed a pIC50 of 8.62.
CC(C)C[C@H](NC(=O)[C@H](Cc1ccc(O)cc1)NC(=O)[C@H](C)NC(=O)[C@H](CCCNC(=N)N)NC(=O)[C@H](Cc1c[nH]c2ccccc12)NC(=O)[C@@H]1CCCN1C(=O)[C@H](CC(N)=O)NC(=O)[C@H](CCC(N)=O)NC(=O)[C@H](CC(=O)O)NC(=O)[C@H](CC(=O)O)NC(=O)[C@H](C)N)C(=O)N[C@@H](CC(=O)O)C(=O)N[C@@H](CC(C)C)C(=O)N[C@@H](CC(C)C)C(=O)N[C@@H](Cc1ccccc1)C(=O)N1CCC[C@H]1C(=O)N[C@H](C(=O)N[C@@H](CC(=O)O)C(=O)N[C@H](C(=O)N[C@@H](CC(C)C)C(=O)N[C@@H](CC(C)C)C(=O)N[C@@H](CC(C)C)C(=O)N[C@@H](CC(=O)O)C(=O)N[C@@H](CC(C)C)C(=O)N[C@@H](CC(C)C)C(=O)N[C@@H](Cc1c[nH]c2ccccc12)C(=O)N[C@@H](CC(=O)O)C(=O)N[C@@H](C)C(=O)N[C@@H](CC(=O)O)C(=O)N[C@@H](CCC(=O)O)C(=O)N[C@@H](CSSc1ccc(COC(=O)N(C)Cc2ccc(-c3[nH]c4cc(F)cc5c4c3CCNC5=O)cc2)cc1)C(=O)NCC(=O)O)[C@@H](C)O)[C@@H](C)O [Example 37] gave a pIC50 of 8.51.
